In ChEMBL document CHEMBL1201862, “PubChem BioAssay data set” (2004):
The source made the active and inactive calls.

Experiments:
[1] = system: Candida albicans; assay: fluconazole-resistant Candida strain growth inhibitors – CaCi-8 strain, dry powder, set 4, dose response (AID 488950); assay type: functional, organism-based
[2] = system: Candida albicans; assay: Candida growth reduction in fluconazole presence – CaCi-2 strain, Alamar Blue, dry powder, set 2, antifungal resistance reversal project, dose response (AID 488930); assay type: functional, organism-based
[3] = system: HEK293; assay: EBV LMP1 TES2 canonical NF-kB signalling blockers – cell-based, HEK293, luciferase, cherry-pick, dose response (AID 588343); assay type: functional; conditions: Homo sapiens
[4] = system: Candida albicans; assay: C. albicans growth inhibition with fluconazole – CaCi-2 strain, Alamar Blue, dry powder, set 4, dose response (AID 488943); assay type: functional, organism-based
[5] = system: Candida albicans; assay: resistant Candida growth with fluconazole co-treatment – CaCi-8 strain, Alamar Blue, dry powder, set 2, dose response (AID 488909); assay type: functional, organism-based
[6] = system: Candida albicans; assay: single-agent toxicity toward C. albicans – CaCi-2 strain, no fluconazole, dry powder, set 4, counter-screen for reversing antifungal drug resistance, dose response (AID 488932); assay type: functional, organism-based
[7] = target: T1, Protein Wnt-3a (Mus musculus, UniProt P27467); assay: antagonism of Wnt3a pathway luciferase reporter – Wnt-LIGHT cells, luminescence, selectivity assay for Gli-SUFU antagonist project, dose response (AID 651570); assay type: functional; conditions: read-out: IC50_Mean;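 note: Wnt-LIGHT reporter cells stimulated with conditioned medium from Wnt3a-producing cells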
[8] = system: INS1; assay: beta-cell survival under cytokine stress – INS-1E, ATP luminescence, dry powder, dose response (AID 488844); assay type: functional, cell-based; conditions: Rattus norvegicus
[9] = system: INS1; assay: suppression of cytokine-induced beta-cell apoptosis – INS-1E, caspase luminescence, dry powder, beta-cell apoptosis inhibitor project, dose response (AID 488848); assay type: functional, cell-based; conditions: Rattus norvegicus
[10] = suppression of NO production in INS-1E cells – cell-based, Griess absorbance, dry powder, set 3, dose response (AID 488870); assay type: functional; conditions: Rattus norvegicus
[11] = system: INS1; assay: INS-1E mitochondrial potential loss inhibitors – cell-based, JC-1 fluorescence, dry powder, set 2, dose response (AID 488867); assay type: functional; conditions: Rattus norvegicus
[12] = system: INS1; assay: suppression of NO production in INS-1E cells – cell-based, Griess absorbance, dry powder, set 2, dose response (AID 488868); assay type: functional; conditions: Rattus norvegicus
[13] = target: Phospholipase D1 (Homo sapiens, UniProt Q13393); assay: cellular phospholipase D1 inhibition IC50 – cell-based, dose response (AID 602151); assay type: functional;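 note: cellular PLD1 assay in Calu-1 cells stimulated with PMA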
[14] = target: Phospholipase D2 (Homo sapiens, UniProt O14939); assay: cellular phospholipase D2 inhibition IC50 – cell-based, dose response (AID 602147); assay type: functional;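 note: cellular assay in HEK293 cells overexpressing GFP-tagged PLD2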
[15] = target: T2, Heat shock factor protein 1 (Mus musculus, UniProt P38532); assay: decrease of HSF1-responsive luciferase luminescence – cell-based, NIH3T3, dose retest, confirmation (AID 2382); assay type: functional;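 note: NIH3T3 fibroblasts with HSF1-driven luciferase reporter stressed by proteasome inhibitor MG132; luminescence from HSF1-driven luciferase expression after 8 hours of MG132 stress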
T2 sequence (P38532 whole entry): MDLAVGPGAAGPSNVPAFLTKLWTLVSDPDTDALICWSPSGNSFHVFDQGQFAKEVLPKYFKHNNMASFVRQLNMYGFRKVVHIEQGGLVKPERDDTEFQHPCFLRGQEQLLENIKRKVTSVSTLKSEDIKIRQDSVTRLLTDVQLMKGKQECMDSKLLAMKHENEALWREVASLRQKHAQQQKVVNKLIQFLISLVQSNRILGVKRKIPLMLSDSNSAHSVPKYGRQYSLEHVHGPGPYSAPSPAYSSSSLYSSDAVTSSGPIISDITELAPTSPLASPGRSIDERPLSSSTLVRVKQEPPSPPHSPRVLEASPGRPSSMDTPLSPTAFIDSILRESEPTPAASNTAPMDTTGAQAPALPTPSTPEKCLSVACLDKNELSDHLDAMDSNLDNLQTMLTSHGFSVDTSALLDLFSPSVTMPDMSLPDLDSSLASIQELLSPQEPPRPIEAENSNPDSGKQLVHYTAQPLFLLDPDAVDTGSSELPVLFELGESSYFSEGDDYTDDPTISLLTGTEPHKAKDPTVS

[16] = HEK-293T cell viability reduction – luminescence, B-cell screen hits, cytotoxicity control for BCR NF-kB inhibitor project, dose response (AID 489021); assay type: functional, cell-based;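 note: HEK-293T cells carrying an NF-kB luciferase reporter; cells exposed to compound for about 14 hours before viability readout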
[17] = system: HEK293; assay: HEK293T cell viability loss, resazurin readout – resazurin fluorescence, cytotoxicity control for NF-kB activator project, SAR follow-up (AID 493251); assay type: functional, cell-based; conditions: Homo sapiens
[18] = system: Jurkat; assay: SAR Analysis of small molecule inhibitors of T-cell specific antigen receptor-induced NF-kB activation in a Jurkat cell line using a luminescence assay - Set 2. [Related pubchem assays (depositor defined):AID435003, AID435012, AID465]; assay type: functional, cell-based; conditions: Homo sapiens
[19] = system: HEK293; assay: SAR Analysis of small molecule inhibitors of T-cell specific antigen receptor-induced NF-kB activation in a HEK-293T cell line using a luminescence assay - Set 2. [Related pubchem assays (depositor defined):AID435003, AID435012, AID489026]; assay type: functional, cell-based; conditions: Homo sapiens
[20] = target: T1, Protein Wnt-3a; assay: SAR analysis of small molecule antagonists of Gli-SUFU in a Wnt3a luminescent reporter assay.; assay type: functional

T1 sequence (P27467 whole entry): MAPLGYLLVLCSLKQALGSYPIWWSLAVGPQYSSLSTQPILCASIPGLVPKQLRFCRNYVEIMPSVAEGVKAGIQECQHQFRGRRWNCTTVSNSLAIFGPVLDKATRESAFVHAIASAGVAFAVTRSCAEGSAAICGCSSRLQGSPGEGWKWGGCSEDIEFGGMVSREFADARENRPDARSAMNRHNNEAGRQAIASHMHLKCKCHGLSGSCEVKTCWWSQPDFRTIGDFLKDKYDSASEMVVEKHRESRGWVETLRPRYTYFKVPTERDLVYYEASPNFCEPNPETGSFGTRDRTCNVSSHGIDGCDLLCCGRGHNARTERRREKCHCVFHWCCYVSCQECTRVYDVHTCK
Phospholipase D2, sequence (O14939 whole entry): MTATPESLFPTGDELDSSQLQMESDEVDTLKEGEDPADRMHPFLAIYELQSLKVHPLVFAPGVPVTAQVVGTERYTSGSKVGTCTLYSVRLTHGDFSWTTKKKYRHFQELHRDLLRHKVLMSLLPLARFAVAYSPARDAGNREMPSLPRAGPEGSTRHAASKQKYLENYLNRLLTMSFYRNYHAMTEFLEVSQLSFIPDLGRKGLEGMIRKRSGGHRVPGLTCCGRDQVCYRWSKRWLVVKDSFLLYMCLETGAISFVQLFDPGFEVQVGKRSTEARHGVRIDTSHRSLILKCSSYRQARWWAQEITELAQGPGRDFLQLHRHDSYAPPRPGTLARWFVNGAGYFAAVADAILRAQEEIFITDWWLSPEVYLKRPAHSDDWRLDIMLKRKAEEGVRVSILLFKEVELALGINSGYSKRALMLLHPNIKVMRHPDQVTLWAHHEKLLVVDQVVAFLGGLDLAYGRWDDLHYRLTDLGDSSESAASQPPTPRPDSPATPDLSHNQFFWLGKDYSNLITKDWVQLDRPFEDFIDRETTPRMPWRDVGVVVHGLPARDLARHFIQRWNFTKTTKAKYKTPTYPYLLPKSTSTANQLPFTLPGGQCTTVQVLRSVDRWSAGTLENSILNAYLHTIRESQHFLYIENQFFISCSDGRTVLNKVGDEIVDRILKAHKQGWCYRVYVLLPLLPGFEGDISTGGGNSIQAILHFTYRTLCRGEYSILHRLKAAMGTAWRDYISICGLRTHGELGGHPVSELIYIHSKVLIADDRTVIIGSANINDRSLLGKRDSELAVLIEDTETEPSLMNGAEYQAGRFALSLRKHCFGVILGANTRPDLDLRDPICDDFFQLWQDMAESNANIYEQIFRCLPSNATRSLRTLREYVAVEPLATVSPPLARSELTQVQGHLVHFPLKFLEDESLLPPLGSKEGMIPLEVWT
Phospholipase D1, sequence (Q13393 whole entry): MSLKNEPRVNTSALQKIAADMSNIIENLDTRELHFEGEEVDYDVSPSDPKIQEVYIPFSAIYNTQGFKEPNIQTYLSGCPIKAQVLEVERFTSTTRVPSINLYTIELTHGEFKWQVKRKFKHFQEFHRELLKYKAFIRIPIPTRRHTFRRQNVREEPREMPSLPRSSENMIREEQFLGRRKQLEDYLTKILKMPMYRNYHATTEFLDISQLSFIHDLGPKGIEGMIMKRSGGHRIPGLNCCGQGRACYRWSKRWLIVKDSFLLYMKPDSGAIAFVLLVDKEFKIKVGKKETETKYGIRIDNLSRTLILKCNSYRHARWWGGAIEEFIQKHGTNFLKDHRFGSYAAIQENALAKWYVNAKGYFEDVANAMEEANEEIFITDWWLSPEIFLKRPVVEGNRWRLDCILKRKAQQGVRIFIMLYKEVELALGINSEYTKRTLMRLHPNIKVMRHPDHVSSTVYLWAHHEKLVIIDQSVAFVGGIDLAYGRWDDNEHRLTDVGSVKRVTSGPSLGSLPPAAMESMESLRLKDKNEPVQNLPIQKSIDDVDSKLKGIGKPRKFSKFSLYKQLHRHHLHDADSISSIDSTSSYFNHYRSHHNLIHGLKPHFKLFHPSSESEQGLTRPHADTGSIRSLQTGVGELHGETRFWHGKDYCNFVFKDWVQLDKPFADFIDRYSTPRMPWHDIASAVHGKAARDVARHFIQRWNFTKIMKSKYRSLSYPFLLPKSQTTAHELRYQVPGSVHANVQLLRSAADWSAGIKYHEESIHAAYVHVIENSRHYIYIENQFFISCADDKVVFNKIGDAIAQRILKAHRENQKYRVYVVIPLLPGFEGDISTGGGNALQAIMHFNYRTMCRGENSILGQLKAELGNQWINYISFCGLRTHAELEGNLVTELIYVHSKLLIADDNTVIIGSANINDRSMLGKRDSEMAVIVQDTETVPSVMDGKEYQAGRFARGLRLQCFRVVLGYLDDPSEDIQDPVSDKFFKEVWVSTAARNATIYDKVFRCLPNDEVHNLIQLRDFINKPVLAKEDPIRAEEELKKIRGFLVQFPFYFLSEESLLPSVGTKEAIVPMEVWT

Question: What does the source list for `O=C(C1CCCCC1)N1CCN(c2ccnc3cc(Cl)ccc23)CC1`?
Answer: AC50 [1]: 1.01 µM (active); AC50 [2]: 0.661 µM (active); AC50 [3]: 12.5 µM (active); AC50 [4]: 0.688 µM (active); AC50 [5]: 5.02 µM (active); AC50 [6]: 200 µM (active); IC50 [7]: 10.4 µM (active)

Question: Which results are given for `COc1ccc(S(=O)(=O)N(C)C[C@@H]2Oc3c(NC(=O)Nc4cccc5ccccc45)cccc3C(=O)N([C@@H](C)CO)C[C@H]2C)cc1`?
Answer: AC50 [8]: 4.88 µM (active); AC50 [9]: 81.2 µM (active); AC50 [10]: 26.4 µM (active); AC50 [11]: 259 µM (active); AC50 [12]: 46.8 µM (active)

Question: With `O=C(NCCN1CCC2(CC1)CCN(c1ccccc1)C2=O)c1cnc2ccccc2c1` as the compound, how does the IC50 [13] read?
Answer: Its IC50 is 20 µM (inactive).

Question: What about the IC50 [14] of the same compound?
Answer: Its IC50 is 20 µM (active).

Question: For `CCOc1ccc(-c2nc(CSCC(=O)NC3CC3)c(C)o2)cc1`, which EC50 [15] is on record?
Answer: The EC50 was 0.241 µM (active).

Question: What about the IC50 [16] of the same compound?
Answer: Its IC50 is > 80 µM (inactive).

Question: And the IC50 [17]?
Answer: The IC50 was > 80 µM (inactive).

Question: And the IC50 [18]?
Answer: Its IC50 is > 79 µM (inactive).

Question: And the IC50 [19]?
Answer: Its IC50 is > 80 µM (inactive).

Question: What about the IC50 [20] of the same compound?
Answer: Its IC50 is > 21.8 µM (inactive).
